Experiments:
[1] = refractive index (Na D-line) (dimensionless); details: 293.1 K; 101.33 kPa; Liquid; Standard Abbe refractometry
[2] = Liquid

CC1CCCCC1O (configuration not stated) [2-methylcyclohexanol]
Details	refractive index
[1]	1.46313

[2]
Details	vapor or sublimation pressure [kPa]
361.23 K	5.394
362.23 K	5.668
363.13 K	5.919
365.7 K	6.693
367.68 K	7.345
369.92 K	8.152
371.63 K	8.817
373.16 K	9.448
375.31 K	10.4
377.78 K	11.58
380.39 K	12.94
383.11 K	14.52
385.95 K	16.32
386.1 K	16.42
389.56 K	18.86
393.07 K	21.65
395.88 K	24.1
398.52 K	26.6
402.67 K	30.99
406.67 K	35.73
410.73 K	41.11
414 K	45.9
418.26 K	52.85
424.63 K	64.66
439.57 K	100.47

CC(=O)OC1CCCCC1C (configuration not stated) [2-methylcyclohexyl acetate]
Details	refractive index
[1]	1.43896

[2]
Details	vapor or sublimation pressure [kPa]
368.01 K	5.32
369.86 K	5.758
371.87 K	6.261
373.83 K	6.787
376.56 K	7.594
379.93 K	8.675
383.36 K	9.912
386.65 K	11.22
391.27 K	13.32
393.39 K	14.38
394.15 K	14.77
398.42 K	17.2
401.6 K	19.19
403.3 K	20.34
405.73 K	22.08
410.71 K	26.01
415.57 K	30.39
418.74 K	33.54
421.2 K	36.16
423.84 K	39.17
426.54 K	42.45
429.41 K	46.21
433.2 K	51.55
440.4 K	63.09
458 K	100.13

From the NIST ThermoML archive (doi:10.1021/je600559q)
